This is an account of results in patent US20120269802A1, “Treatment And Prognosis With Thalidomide In Multiple Myeloma Based on Karyotyping And Gene Expression Profiling” (Board Of Trustees Of The University Of Arkansas, priority 2009, published 2012).

The subject of this test is multiple myeloma. The test is described as follows: Total Therapy 2 (TT2) randomized trial, control arm vs thalidomide arm: survival (Kaplan-Meier, Cox regression). In kind it is in vivo, patients. The conditions noted are these: for Overall Survival HR (95% CI), randomization to thalidomide: all patients with GEP data. The source says: To clarify the underlying mechanism, survival was examined in the 351 patients for whom gene expression profiling and cytogenetic data were available. […] Survival in the context of cytogenetic abnormalities involving chromosomal loci (CA1, CA13) was also examined. Statistical methods including Cox regression modeling were employed to define variables independently impacting outcomes.
Of all 668 patients accrued to TT2, the 351 with gene expression profiling data available on CD138-purified plasma cells prior to initiation of therapy are the subjects of this report. […] The sole clinical outcome focus in this example is the overall survival measured from initiation of therapy.
Kaplan-Meier methods were used to generate survival distribution graphs and comparisons were made using the log-rank test. Categorical comparisons were made using the chi-squared test. Running log-rank tests were used to determine optimal cut points for IL6R expression levels. Multivariate analyses applied stepwise selection and Cox proportional hazard regression modeling.
In each of Tables 2-3: HR—Hazard Ratio, 95% Cl-95% Confidence Interval, P-value from Wald Chi-Square Test in Cox Regression NS2-Multivariate results not statistically significant at 0.05 level. All univariate p-values reported regardless of significance. Multivariate model uses stepwise selection with entry level 0.1 and variable remains if meets the 0.05 level. A multivariate p-value greater than 0.05 indicates variable forced into model with significant variables chosen using stepwise selection. Variables considered for the multivariate model were: Cytogenetic abnormalities, CA1, CA13, CA 1+13, Albumin <3.5 g/dL, B2M >5.5 mg/L, Creatinine ≧2 mg/dL, Hb <10 g/dL, LDH ≧190 U/L, GEP high-risk, GEP TP53 deletion, GEP IL6R expression ≧2900, GEP CKS1B Q4, Randomization to thalidomide, IL6R and CA 1+13 (interaction term).

Regarding `O=C1CCC(N2C(=O)c3ccccc3C2=O)C(=O)N1` (stereo not shown) [thalidomide], the 7-year survival estimate (GEP-defined low-risk myeloma, subset displaying cytogenetic abnormalities, thalidomide arm vs 30% on control arm, p=0.004 (FIG. 1B)) is given as 67%. The “outcome vs control arm” value (all patients with GEP-defined low-risk myeloma, p=0.13) was “only trending toward better outcomes”. The 5-year survival estimate (low-risk patients, CA1/13 subgroup (CA without both CA1 and CA13), addition of thalidomide vs 59% control, p<0.001 (FIG. 1C)) is given as 95%. In addition, the “survival outcomes on both treatment arms” value (low-risk patients, subgroups with no cytogenetic abnormalities and with CA1+13 (FIG. 1C)) is listed as “similar”. The “Overall Survival HR (95% CI), randomization to thalidomide” value by setting is: (multivariate analysis, n/N 168/337, P 0.037) 0.69 (0.49, 0.98); (univariate analysis, n/N 175/351, P 0.158) 0.78 (0.56, 1.10). Also, the “OS from Enrollment HR (95% CI), CA with thalidomide randomization (interaction term)” value (multivariate analysis, patients with GEP-defined low-risk, n/N 33/304, P 0.003) is listed as 0.27 (0.11, 0.64). Further, the “OS from Enrollment HR (95% CI), randomization to thalidomide” value (multivariate analysis, patients with GEP-defined low-risk, n/N 149/304, P 0.766) was 1.08 (0.65, 1.79) and the “OS from Enrollment HR (95% CI), randomization to thalidomide” value (univariate analysis, patients with GEP-defined low-risk, n/N 149/305, P 0.140) is 0.74 (0.50, 1.10). The 7-year survival (patients exhibiting cytogenetic abnormalities (CA), randomized to thalidomide in TT2, vs 25% on control arm, p=0.015 (FIG. 1A)) was found to be 54%.
